The record followed here is patent US10308700B2, “GLP-1 derivatives” (Novo Nordisk A/S, priority 2011, dated 2019).

The target of the experiment is T1, human GLP-1 receptor (Homo sapiens, UniProt P43220).
T1 construct: expressed in transfected cells; host or cells: BHK467-12A (tk-ts13), baby hamster kidney; purified plasma membranes
Nature of the experiment: In vitro potency (CRE luciferase; whole cells). The experiment is classed as cell-based.

T1 sequence (P43220 24-463): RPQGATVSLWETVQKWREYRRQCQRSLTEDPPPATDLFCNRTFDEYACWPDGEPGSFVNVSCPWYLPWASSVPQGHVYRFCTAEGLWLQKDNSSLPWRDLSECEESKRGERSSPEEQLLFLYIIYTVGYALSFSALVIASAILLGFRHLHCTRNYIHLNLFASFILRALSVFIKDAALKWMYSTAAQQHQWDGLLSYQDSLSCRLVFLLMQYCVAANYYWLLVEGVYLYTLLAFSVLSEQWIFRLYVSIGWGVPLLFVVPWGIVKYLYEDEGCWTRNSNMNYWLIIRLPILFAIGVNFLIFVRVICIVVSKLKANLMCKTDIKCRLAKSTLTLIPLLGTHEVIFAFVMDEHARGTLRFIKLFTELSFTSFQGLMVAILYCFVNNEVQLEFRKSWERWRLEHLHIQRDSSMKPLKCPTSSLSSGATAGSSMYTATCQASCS
Description: The purpose of this example is to test the activity, or potency, of the GLP-1 derivatives in vitro. The in vitro potency is the measure of human GLP-1 receptor activation in a whole cell assay.
In vitro potency was determined by measuring the response of human GLP-1 receptor in a reporter gene assay. The assay was performed in a stably transfected BHK cell line that expresses the human GLP-1 receptor and contains the DNA for the cAMP response element (CRE) coupled to a promoter and the gene for firefly luciferase (CRE luciferase). When the human GLP-1 receptor was activated it results in the production of cAMP, which in turn results in the luciferase protein being expressed. When assay incubation was completed the luciferase substrate (luciferin) was added and the enzyme converts luciferin to oxyluciferin and produces bioluminescence. The luminescence was measured and was the readout for the assay.
The cells were cultured at 5% CO2 in cell culture medium. They were aliquoted and stored in liquid nitrogen. Before each assay an aliquot was taken up and washed twice in PBS before being suspended at the desired concentration in the assay specific buffer.
• 1) Cell stocks were thawed in a 37° C. water bath. • 2) Cells were washed three times in PBS. • 3) The cells were counted and adjusted to 5×10^3 cells/50 μl (1×10^5 cells/ml) in assay medium. […]

`CC[C@H](C)[C@H](NC(=O)[C@H](Cc1ccccc1)NC(=O)[C@H](CCC(=O)O)NC(=O)[C@H](CCCCNC(=O)[C@@H](N)CCCCNC(=O)[C@H](CO)NC(=O)CNC(=O)[C@H](CO)NC(=O)CC[C@H](NC(=O)CCCCCCCCCCCOc1ccc(C(=O)O)cc1)C(=O)O)NC(=O)[C@H](C)NC(=O)[C@H](C)NC(=O)[C@H](CCC(N)=O)NC(=O)CNC(=O)[C@H](CCC(=O)O)NC(=O)[C@H](CC(C)C)NC(=O)[C@H](Cc1ccc(O)cc1)NC(=O)[C@H](CO)NC(=O)[C@H](CO)NC(=O)[C@@H](NC(=O)[C@H](CC(=O)O)NC(=O)[C@H](CO)NC(=O)[C@@H](NC(=O)[C@H](Cc1ccccc1)NC(=O)[C@@H](NC(=O)CNC(=O)[C@H](CCC(=O)O)NC(=O)C(C)(C)NC(=O)[C@@H](N)Cc1c[nH]cn1)[C@@H](C)O)[C@@H](C)O)C(C)C)C(=O)N[C@@H](C)C(=O)N[C@@H](Cc1c[nH]c2ccccc12)C(=O)N[C@@H](CC(C)C)C(=O)N[C@H](C(=O)N[C@@H](CCCNC(=N)N)C(=O)NCC(=O)N[C@@H](CCCNC(=N)N)C(=O)N[C@@H](CCCCNC(=O)[C@@H](N)CCCCNC(=O)[C@H](CO)NC(=O)CNC(=O)[C@H](CO)NC(=O)CC[C@H](NC(=O)CCCCCCCCCCCOc1ccc(C(=O)O)cc1)C(=O)O)C(=O)O)C(C)C` [Example 29] had an EC50 of 5 pM.
